Test results published in US8956622B2, “Peptidic antagonists of class III semaphorins/neuropilins complexes” (INSERM—Institut National de la Sante et de la Recherche …, priority 2005, dated 2015).

What was measured:
PC12 cells = assay: PC12 cell differentiation / neuritic outgrowth assay; format: cell-based; details: peptide 10^−9 M
Experimental: To further investigate the biochemical consequence of the TM-NRP1 in terms of receptor complex formation, we analyzed the formation of complexes in the PC12 neuronal cells model.
PC12 (ATCC: CRL-1721) were grown in D-MEM medium with 4.5 g of glucose/L (GIBCO), 5% FVS, 10% horse serum, glutamine 580 mg/L and antibiotics. For functional assays, PC12 were cultured on 12-wells plates with previously poly-L-lysine-coated glass coverslips. PC12 cells were incubated 1 h with or without pTM-NRP1 peptide (10^−9M) at 37° C. Culture medium was removed and replaced by NGF-containing (100 ng/mL; GIBCO) serum free medium or by conditioned medium obtained from HEK293 cells stably expressing Sema3A or non-transfected cells (control, see BAGNARD et al., 1998 for details) for 12 h at 37° C.
Cells were fixed with 2% formaldehyde for 30 mn followed by 15 mn in 4% formaldehyde. For each condition tested, around 400 cells were analyzed to evaluate neuritic outgrowth (Statistical analyses were made by using χ^2 test).

NRP1 = target: T1, NRP1 (Rattus norvegicus, UniProt Q9QWJ9); assay: AP-Sema3A binding to its receptor NRP1 on C6 glioma cells (luminescence)
T1 construct: Rat C6 glioma cells, which express semaphorin receptors; endogenous in cells; host or cells: rat C6 glioma cells
Experimental: In order to investigate the NRP1 transmembrane domain role in the linkage NRP1-class III semaphorins, the binding of the ligand Sema3A to its receptor NRP1 on glioma cells was measured in the presence or not of the transmembrane domain peptide of NRP1 (pTM-NRP1 peptide; SEQ ID NO. 1) or of a mutated peptide (mpTM-NRP1; SEQ ID NO. 20, […]). These pTM-NRP1 Peptides have been synthesized by automatic peptidic synthesis (Fmoc chemistry, APPLIED SYSTEM), and analyzed by mass spectrometry. Peptides purity has been estimated by RP-HPLC (BECKMAN) as higher than 90%.
Rat C6 glioma cells, which express semaphorin receptors, has been used to determine the binding capacity of AP-Sema3A, a secreted alkaline phosphatase version of Sema 3A (ADAMS et al., 1997, BAGNARD et al., 1998). These cells were grown and plated in MEM medium (GIBCO) with 10% foetal calf serum (PERBIO), glutamine 0.5 mM (GIBCO) and antibiotics: 100 U/ml penicillin and 100 μg/ml streptomycin (SIGMA).
C6 Cells were cultured in 96-well plates and incubated with or without freshly diluted pTM-NRP1 or pTM-NRP1^mut peptides (10^−12 M to 10^−10 M) for 1 hour at 37° C. The culture medium has been then replaced by conditioned medium of HEK cells stably transfected with a construction expressing AP-Sema 3A (ADAMS et al., EMBO J., vol. 16(20), p: 6077-86, 1997; BAGNARD et al., 1998). Conditioned medium from HEK non transfected cells has been used as an internal control. The pTM-NRP1 Peptide has been synthesized by automatic peptidic synthesis (Fmoc chemistry, APPLIED SYSTEM), and analyzed by mass spectrometry. Peptides purity has been estimated by RP-HPLC (BECKMAN) as higher than 90%, the cells have been washed with PBS and incubated with 50 μl of alkaline phosphatase luminescent substrate (AMERSHAM). The luminescence has been read after 15 minutes with MICROLUMAT PLUS system (BERTHOLD TECHNOLOGIES) according to the manufacturer's instructions. Experiments were done 4 times for each peptide.

NRP1 receptor complex = target: T2, NRP1 receptor complex (Rattus norvegicus, UniProt Q9QWJ9); assay: Formation of NRP1 receptor complexes, sucrose density gradient sedimentation and western blot; format: cell-based; details: C6 cells expressing NRP1 and Plexin-A1, peptide 10^−9 M for 1 h
T2 construct: C6 cells expressing NRP1 and Plexin-A1 were incubated or not with the pTM-NRP1 peptide; endogenous in cells; host or cells: rat C6 glioma cells
Experimental: To further investigate the role of the transmembrane domain of the NRP1 receptor in the formation of the NRP1 receptor complex, the formation of NRP1 complexes has been determined on C6 cells expressing NRP1 and plexin-A1 in the presence or not of the transmembrane domain peptide of NRP1 (pTM-NRP1 peptide) and of the ligand Sema3A.
C6 cells expressing NRP1 and Plexin-A1 were incubated or not with the pTM-NRP1 peptide (10^−9 M) for 1 h. The culture medium has been then replaced of HER cells stably transfected or not with a construction expressing Sema 3A. Confluent C6 have been harvested with 10 mM EDTA and centrifuged. The pellet has been washed in PBS and then diluted in lysis buffer (Tris-HCL/NaCl; 50/150; pH 8.0) with 0.1% SDS, 1 mM EDTA, 1% NP-40, 0.5% DOC, 2 mM vanadate and proteases inhibitors without SDS (PIERCE). After solubilization for 1 h at 4° C., protein amount is estimated by bicinchoninic acid method (BCA Protein Assay, PIERCE).
Sucrose density gradient sedimentation experiments were based on a step gradient containing 25%, 17%, 10% and 3% sucrose. […]
The membrane has been then incubated 2 hours with polyclonal anti-NRP1 at a 1:1000 dilution (ONCOGENE). […] Immunoreactivity has been then detected with an enhanced chemoluminescence western blot detection system (PIERCE) according to the manufacturer's instructions. […]

decrease of binding of AP-Sema3A to NRP1 compared to the absence of peptide (NRP1; C6 cells, peptide 10^−10 M): about 50%
binding of AP-Sema3A to its receptor NRP1 on C6 cells (NRP1; peptide 10^−12 M to 10^−10 M, 1 hour): blocked in a dose dependent manner
oligomerization of NRP1 in the presence of Sema 3A (NRP1 receptor complex): inhibited
Sequence: ILITIIAMSALGVLLGAVCGVVL [pTM-NRP1]
NGF effect on PC12 cell differentiation (PC12 cells; NGF 100 ng/mL 12 h): preserved
Sema3A induced neurite growth promotion (PC12 cells; Sema3A conditioned medium 12 h): significantly reduced
